Values belong to the molecule of their own block, whether it stands above or below them. Activity calls are given as the source filed them. The rule behind the calls is not given here.
Experiments:
CCRF S-180 [1] = test: Antitumor activity against mouse S180 cells allografted in mouse assessed as tumor growth inhibition at 1 to 5 mg/kg, ip qd for 8 days; assay type: functional, organism-based
CCRF S-180 [2] = test: Antitumor activity against mouse S180 cells allografted in mouse assessed as tumor growth inhibition at 50 mg/kg, ip qd for 8 days; assay type: functional, organism-based; parameters: dose 50 mg/kg
CCRF S-180 [3] = test: Antitumor activity against mouse S180 cells allografted in mouse assessed as tumor growth inhibition at 100 mg/kg, ip qd for 8 days; assay type: functional, organism-based; parameters: dose 100 mg/kg
[4] = Stability of the compound at pH 7.4; assay type: physicochemical; conditions: buffer
CCRF S-180 [5] = test: Antitumor activity against mouse S180 cells allografted in mouse assessed as tumor growth inhibition at 5 mg/kg, ip qd for 8 days; assay type: functional, organism-based; parameters: dose 5 mg/kg

Structure (SMILES): Nc1nc(=O)n([C@@H]2O[C@H](CO)[C@@H](O)[C@H]2O)cc1F
TGI (CCRF S-180 [1]): Active

Structure (SMILES): O=c1[nH]c(=O)n([C@@H]2O[C@H](CI)[C@@H](O)[C@H]2O)cc1F
TGI (CCRF S-180 [2]): inactive

Structure (SMILES): Nc1nc(=O)c(F)cn1[C@@H]1O[C@H](CO)[C@@H](O)[C@H]1O
TGI (CCRF S-180 [2]): inactive

Stability [4]: Stable
Structure (SMILES): Nc1nc2[n+](cc1F)[C@@H]1O[C@H](CO)[C@@H](O)[C@@H]1N2.[Cl-]
TGI (CCRF S-180 [3]): inactive

Stability [4]: Stable
Structure (SMILES): O=c1nc2n(cc1F)[C@@H]1O[C@H](CO)[C@@H](O)[C@@H]1N2
TGI (CCRF S-180 [2]): inactive

Structure (SMILES): O=c1[nH]c(=O)n([C@@H]2O[C@H](CO)[C@@H](O)[C@H]2O)cc1F
TGI (CCRF S-180 [5]): Active

Structure (SMILES): Nc1nc(N)[n+]([C@@H]2O[C@H](CO)[C@@H](O)[C@H]2O)cc1F
TGI (CCRF S-180 [2]): inactive

— ChEMBL document CHEMBL3244083, “Fluorinated Pyrimidine nucleosides. 1. Synthesis of a nitrogen analogue of the antitumor agent 2,2'-anhydro-1-beta-D-arabinofuranosyl-5-fluorocytosine hydrochloride” (J Med Chem, 1977)
